Results published in patent publication US20110110958A1, “COMPOSITIONS AND METHODS FOR THE TREATMENT OF NEOPLASIA” (UNIVERSITY OF FLORIDA RESEARCH FOUNDATION, priority 2007, published 2011).

Assays:
[1] = test system: glioma cell viability; assay: GI50 comparison of J1 with FDA approved chemotherapy drugs (FIG. 12); assay type: cell-based; conditions: read-out: GI50 (concentration of drug that causes 50% growth inhibition)
[2] = test system: U87MG glioma cells; assay: Cell viability assay (trypan blue exclusion), U87MG; assay type: cell-based, human; design: viable U87 cells after JAZ siRNA plus J1: dose or concentration left out as unconfirmed
Procedure: (§1) T98G, U87MG, U118MG, A172, LN18, DBTRG-05MG, LN229, M059J, WT4 human glioma cell lines were purchased from American Type Culture Collection (Rockville, Md.). Cell culture was conducted according to the ATCC's recommendations, available at www.atcc.org. Normal human astrocytes (NHA) were purchased from Lonza Bioscience (Switzerland). Cell cultures were grown according to the vendor's recommendations for each cell line. GL261 mouse glioma cell line was obtained from NCI (Frederick, Md.) and was grown in RPMI (Gibco BRL, Grand Island, N.Y.) containing 10% FBS, 1% Penicillin-Streptomycin, and 4 mM L-glutamine at 37° C. with 5% CO2.
(§2) J1 and its derivatives were provided by NCI developmental therapeutic program repository or purchased from Sigma-Aldrich Inc. Temozolomide (TMZ) was obtained from Schering-Plough (Kenilworth, N.J.). Both J1 and TMZ were dissolved in DMSO and stock solution of 100 mM were made.
JAZ siRNA and control siRNA were purchased from Invitrogen. Cell transfection was performed by using METAFECTENE PRO (Biontex Laboratories GmbH, Germany) following the manufacturer's instructions. Briefly, 40 pmoles of JAZ (or control) siRNA was added into 30 μl serum-free medium then mixed with METAFECTENE PRO solution and incubated for 15-20 minutes at room temperature. The final siRNA-lipid complex solution was added into one 24-well-plate well. The complex-containing medium was replaced with serum-containing medium at 3 hours after the transfection to reduce the toxicity.
(§3) Cell viability was measured by first seeding tumor cells in 24-well dishes at a density of 10,000 cells per well. Two days later, cells were transduced with JAZ (or control) siRNA. Forty-eight hours after transduction, cells were collected by trypsinization followed by the trypan blue exclusion method (Yang et al., J Biol Chem 1999; 274:27399-406) and counted manually using a hemacytometer. This experiment was repeated six times for each cell line and each time in triplicate.

[3] = test system: T98G glioma cells; assay: Cell viability assay (trypan blue exclusion), T98G; assay type: cell-based, human; conditions: mutant-type p53-expressing T98G cells after J1 treatment
Procedure: as §1, §2
(§4) JAZ siRNA and control siRNA were purchased from Invitrogen. […]
as §3, with “Two days later, cells were transduced with JAZ (or control) siRNA.” left out, “This experiment was repeated six times for each cell line and each time in triplicate.” left out

[4] = test system: WT4 glioma cells; assay: Cell viability assay (trypan blue exclusion), WT4; assay type: cell-based, human; conditions: p53-expressing and p53-non-expressing WT4 cells, J1 25 μM
Procedure: as §1, §2, §4
as §3, with “Two days later, cells were transduced with JAZ (or control) siRNA.” left out, “This experiment was repeated six times for each cell line and each time in triplicate.” left out

[5] = test system: lung cancer cells; assay: Cytotoxicity to lung cancer cells (FIG. 13); assay type: cell-based
[6] = test system: colon cancer cells; assay: Cytotoxicity to colon cancer cells (FIG. 13); assay type: cell-based
[7] = test system: leukemia cells; assay: Cytotoxicity to leukemia cells (FIG. 13); assay type: cell-based
[8] = test system: U87MG glioma cells; assay: DNA laddering in glioma cells; assay type: cell-based, human; conditions: J1 25 μM
[9] = test system: JAZ, p53, and Bax protein levels; assay: Western blot of JAZ, p53 and Bax; assay type: cell-based; conditions: J1 25 μM
Procedure: (§5) Whole cell protein extracts were prepared using cold lysis buffer consisting of: M-Per mammalian protein extraction reagent (Pierce Biochemical, Rockford, Ill.), 30 mM sodium fluoride, 1 mM sodium vanadate, and protease inhibitor cocktail tablets (Boehringer Mannheim). Samples were incubated on ice for 10 minutes and supernatants were recovered by centrifuging at 14,000 rpm at 4° C. for 20 minutes. Protein concentrations were determined by the BCA method (Pierce Biochemical). Proteins were separated on SDS-PAGE and transferred to nitrocellulose membrane (Osmonics, Minnetonka, Minn.). Blocking reagent is 5% nonfat dry milk in PBS (pH 7.4). Washing buffer is PBS (pH 7.4) with 0.1% Tween 20. Primary antibodies (p53, ATM, CHK1, CHK2) are commercially available. JAZ primary antibodies are described in Yang et al., Blood 108:4136-4145, 2006. The respective HRP-conjugated secondary antibodies were purchased from Boehringer Mannheim. Signals are visualized by using ECL chemiluminescence (Amersham, Indianapolis, Ind.) or Supersignal chemiluminescence (Pierce Biochemical) and Kodak X-OMAT films. Data acquired as integrated densitometric values are transformed to percentages of the values obtained from control samples visualized on the same blot.

[10] = test system: U87 glioma cells; assay: Quantitative proteomics (iTRAQ 4plex), U87; assay type: cell-based, human
Procedure: (§6) FIGS. 14A and 14B are tables showing quantitative proteomic analysis of proteome changes 48 hours after J1 (65 μM, NCI) treatment on U87 (FIG. 14A) and U118 (FIG. 14B) glioma cells. To further explore the molecular mechanism of J1's cytotoxic effects on glioma cells, a quantitative proteomics analysis (iTRAQ 4plex) was conducted after J1 treatment. There were four groups: untreated U87 and U118 glioma cells and J1 treated U87 and U118 glioma cells at 48 hours. Each group was in triplicate. […] HSPA5 activation is a marker for Unfolded Protein Response (UPR), a pathway that can contribute to cell death or cell survival.

[11] = test system: U118 glioma cells; assay: Quantitative proteomics (iTRAQ 4plex), U118; assay type: cell-based, human
Procedure: as §6

[12] = test system: ATF-4 protein levels in U87 glioma cells; assay: Western blot of ATF-4, U87; assay type: cell-based, human; conditions: U87, 24, 48, and 72 hours after J1 (10 and 25 μM)
Procedure: as §5

[13] = test system: ATF-4 protein levels in U118MG cell line; assay: Western blot of ATF-4, U118MG; assay type: cell-based, human; conditions: U118MG, 24, 48, and 72 hours after J1 (10 and 25 μM)
Procedure: as §5

[14] = test system: ATF-4 and CHOP in U87 cells; assay: Immunofluorescence of ATF-4 and CHOP, U87; assay type: cell-based, human
[15] = test system: primary cultured hepatocytes; assay: Cytotoxicity on primary cultured hepatocytes; assay type: cell-based; conditions: 24 hours after drug treatment
[16] = test system: HepG2 cells; assay: Cytotoxicity on HepG2; assay type: cell-based, Human; conditions: dose and time-dependent
[17] = test system: DU145 prostate carcinoma cells; assay: Cytotoxicity on DU145; assay type: cell-based
[18] = test system: LNCAP prostate carcinoma cells; assay: Cytotoxicity on LNCAP; assay type: cell-based
[19] = test system: GL261 glioma cells; assay: Cytotoxicity on GL261; assay type: cell-based, mouse; conditions: increasing concentrations
Procedure: as §1

[20] = test system: glioma; assay: In vitro glioma cytotoxic effects of J1 analogues (FIG. 18); assay type: cell-based

`Cn1nnc2c(C(N)=O)ncn2c1=O` [Temozolomide, reference compound] was tested, and the GI50 [1] was 100 µM.
With `O=C(Nc1ccc(Cl)c(Cl)c1)Nc1ccccc1O` [J1, N′-(2-hydroxy-phenyl)-N-(3,4-dichlorophenyl)Urea] the “viable U87 cells after JAZ siRNA plus J1” value ([2]; 24 hours after JAZ siRNA transfection, J1 for additional 24 hours) was “did not lead to further reduction of viable U87 cells”, the “viable U87 cells” value ([2]; 48 hours after J1 treatment (10 μM)) was “reduction of viable U87 cells” and the “viable tumor cells, time and dose course” value ([2]; U87MG cells after J1 treatment) was “time- and dose-dependent significant reduction of viable tumor cells”. The “viable tumor cells, time and dose course” value [3] was “time- and dose-dependent significant reduction of viable tumor cells”, the viable tumor cells [4] was “time-dependent significant reduction of viable tumor cells” and the GI50 [1] was 10 µM. For the same compound, the “cytotoxicity to lung cancer cells” value [5] was “cytotoxic”, the “cytotoxicity to colon cancer cells” value [6] was “cytotoxic” and the “cytotoxicity to leukemia cells” value [7] was “cytotoxic”. For the same compound, the DNA laddering formation [8] was “increased DNA laddering formation”, the “JAZ, p53, and Bax protein levels” value [9] was “did not alter” and the “HSPA5 (GRP78, Bip) protein levels” value ([10]; U87, 48 hours after J1 (65 μM)) was “consistently and significantly increased”. The PLOD2 protein level ([10]; U87 glioma cells) was “significantly down-regulated”, the “proteins up-regulated by J1 treatment” value ([10]; U87 glioma cells) was “PBEF1, HSPA5, ANXA1, TPI1, ANXA5, HSPA9, TGM2, NPM1, and RPLP2” and the “HSPA5 (GRP78, Bip) protein levels” value ([11]; U118, 48 hours after J1 (65 μM)) was “consistently and significantly increased”. For the same compound, the “proteins up-regulated by J1 treatment” value ([11]; U118 glioma cells) was “HSPA5, PBEF1, HSPA1B, VIM, LMNA and HIST2H3PS2”, the ATF-4 protein levels [12] was “time- and dose dependent increase” and the ATF-4 protein levels [13] was “time- and dose dependent increase”. For the same compound, the “nuclear ATF-4 staining” value ([14]; 12 hours after J1 (25 μM)) was “significantly increased”, the CHOP staining ([14]; 24 hours after J1 (25 μM)) was “significantly increased” and the “cytotoxic effects on primary cultured hepatocytes” value [15] was “minimal cytotoxic effects”. For the same compound, the “cytotoxic effects on HepG2 cells” value [16] was “significant cytotoxic effects”, the “cytotoxic effects on DU145 cells” value [17] was “strong dose and time-dependent cytotoxic effects” and the “cytotoxic effects on LNCAP cells” value [18] was “strong dose and time-dependent cytotoxic effects”. For the same compound, the “cytotoxic effects on GL261 glioma cells” value [19] was “progressively greater cytotoxic effects”.
For `O=C(Nc1ccc(Cl)cc1)Nc1ccc(Cl)c(Cl)c1` [J1-h, 3-(4-chloro-phenyl)-1-(3,4-dichlorophenyl) Urea], the “cytotoxic effects on primary cultured hepatocytes” value [15] was “minimal cytotoxic effects”, the “cytotoxic effects on HepG2 cells” value [16] was “significant cytotoxic effects” and the “cytotoxic effects on DU145 cells” value [17] was “strong dose and time-dependent cytotoxic effects”. The “cytotoxic effects on LNCAP cells” value [18] was “strong dose and time-dependent cytotoxic effects”, the “cytotoxic effects on GL261 glioma cells” value [19] was “progressively greater cytotoxic effects” and the “in vitro glioma cytotoxic effects” value [20] was “glioma cytotoxic effects”.
